Data as given in ChEMBL document CHEMBL3627608, “Crystal structures of human RIP2 kinase catalytic domain complexed with ATP-competitive inhibitors: Foundations for understanding inhibitor selectivity” (Bioorg Med Chem, 2015).

What was measured:
[1] = molecular target: T1, 3-phosphoinositide-dependent protein kinase 1 (Homo sapiens) (UniProt O15530); assay: Inhibition of PDK1 (unknown origin) at 10 uM after 120 mins P33 radiolabeled kinase activity assay
T1 sequence (whole entry): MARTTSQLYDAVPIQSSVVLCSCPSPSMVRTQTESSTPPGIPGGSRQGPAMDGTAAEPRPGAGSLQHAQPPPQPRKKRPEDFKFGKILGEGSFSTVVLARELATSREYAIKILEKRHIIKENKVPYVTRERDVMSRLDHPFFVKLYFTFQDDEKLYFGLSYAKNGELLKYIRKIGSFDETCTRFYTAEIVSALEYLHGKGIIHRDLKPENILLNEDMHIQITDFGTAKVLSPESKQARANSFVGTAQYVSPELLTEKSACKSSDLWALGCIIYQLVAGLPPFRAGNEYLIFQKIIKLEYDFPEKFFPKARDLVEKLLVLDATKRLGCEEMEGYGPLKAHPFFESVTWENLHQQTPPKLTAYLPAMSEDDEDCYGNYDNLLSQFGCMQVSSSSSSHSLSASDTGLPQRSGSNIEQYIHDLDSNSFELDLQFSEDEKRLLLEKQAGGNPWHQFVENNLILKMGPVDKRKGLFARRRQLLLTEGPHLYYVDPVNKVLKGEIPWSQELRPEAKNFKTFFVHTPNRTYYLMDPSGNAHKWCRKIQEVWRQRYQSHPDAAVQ

[2] = molecular target: T2, Ephrin type-B receptor 4 (Homo sapiens) (UniProt P54760); assay: Inhibition of EPHB4 (unknown origin) at 10 uM after 120 mins P33 radiolabeled kinase activity assay
T2 sequence (whole entry): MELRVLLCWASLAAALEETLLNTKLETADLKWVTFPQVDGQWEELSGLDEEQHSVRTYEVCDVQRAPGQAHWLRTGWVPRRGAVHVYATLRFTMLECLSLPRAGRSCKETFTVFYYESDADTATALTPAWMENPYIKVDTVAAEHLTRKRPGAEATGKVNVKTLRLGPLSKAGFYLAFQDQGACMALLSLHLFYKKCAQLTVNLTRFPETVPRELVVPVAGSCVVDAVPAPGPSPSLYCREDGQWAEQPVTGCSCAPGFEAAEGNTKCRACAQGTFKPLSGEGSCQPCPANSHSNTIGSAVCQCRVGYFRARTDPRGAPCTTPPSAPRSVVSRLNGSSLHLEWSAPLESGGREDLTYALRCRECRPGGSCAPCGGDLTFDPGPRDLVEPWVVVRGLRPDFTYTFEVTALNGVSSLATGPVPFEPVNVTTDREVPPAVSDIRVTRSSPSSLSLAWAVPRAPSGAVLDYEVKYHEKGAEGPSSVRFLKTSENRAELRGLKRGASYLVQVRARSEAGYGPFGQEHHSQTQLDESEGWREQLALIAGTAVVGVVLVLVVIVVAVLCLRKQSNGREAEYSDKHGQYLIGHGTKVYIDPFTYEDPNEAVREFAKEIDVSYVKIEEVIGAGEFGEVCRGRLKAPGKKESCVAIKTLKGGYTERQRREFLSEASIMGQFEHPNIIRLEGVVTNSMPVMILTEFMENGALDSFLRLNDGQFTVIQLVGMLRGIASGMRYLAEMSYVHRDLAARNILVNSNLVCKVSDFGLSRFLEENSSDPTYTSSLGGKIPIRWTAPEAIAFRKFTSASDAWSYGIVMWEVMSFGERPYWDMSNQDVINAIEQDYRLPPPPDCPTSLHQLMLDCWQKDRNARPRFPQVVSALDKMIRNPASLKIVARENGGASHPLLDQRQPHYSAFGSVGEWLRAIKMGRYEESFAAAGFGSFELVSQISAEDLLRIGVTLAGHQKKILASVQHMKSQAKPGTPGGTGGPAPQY

[3] = molecular target: Mitogen-activated protein kinase kinase kinase 12 (Homo sapiens) (UniProt Q12852); assay: Inhibition of DLK (unknown origin) at 10 uM after 120 mins P33 radiolabeled kinase activity assay
[4] = molecular target: Tyrosine-protein kinase JAK1 (Homo sapiens) (UniProt P23458); assay: Inhibition of JAK1 (unknown origin) at 10 uM after 120 mins P33 radiolabeled kinase activity assay
[5] = molecular target: Dual specificity tyrosine-phosphorylation-regulated kinase 1A (Homo sapiens) (UniProt Q13627); assay: Inhibition of DYRK1 (unknown origin) at 10 uM after 120 mins P33 radiolabeled kinase activity assay
[6] = molecular target: T3, Tyrosine-protein kinase TXK (Homo sapiens) (UniProt P42681); assay: Inhibition of TXK (unknown origin) at 10 uM after 120 mins P33 radiolabeled kinase activity assay
T3 sequence (whole entry): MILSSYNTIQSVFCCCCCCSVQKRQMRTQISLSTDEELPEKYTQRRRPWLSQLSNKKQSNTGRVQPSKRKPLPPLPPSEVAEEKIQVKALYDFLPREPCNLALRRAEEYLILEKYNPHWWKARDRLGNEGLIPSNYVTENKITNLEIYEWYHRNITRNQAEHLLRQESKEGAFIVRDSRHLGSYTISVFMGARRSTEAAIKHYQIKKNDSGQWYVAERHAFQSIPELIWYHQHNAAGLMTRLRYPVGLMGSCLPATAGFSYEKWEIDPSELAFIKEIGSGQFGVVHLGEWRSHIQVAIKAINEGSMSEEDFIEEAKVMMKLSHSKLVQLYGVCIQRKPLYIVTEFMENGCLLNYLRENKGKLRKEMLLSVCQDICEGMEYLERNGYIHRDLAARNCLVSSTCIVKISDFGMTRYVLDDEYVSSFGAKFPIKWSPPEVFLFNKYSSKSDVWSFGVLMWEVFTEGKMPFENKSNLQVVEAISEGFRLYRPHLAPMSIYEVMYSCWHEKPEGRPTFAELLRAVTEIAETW

[7] = molecular target: Tyrosine-protein kinase Fyn (Homo sapiens) (UniProt P06241); assay: Inhibition of FYN (unknown origin) at 10 uM after 120 mins P33 radiolabeled kinase activity assay
[8] = molecular target: Mitogen-activated protein kinase 9 (Homo sapiens) (UniProt P45984); assay: Inhibition of JNK2 (unknown origin) at 10 uM after 120 mins P33 radiolabeled kinase activity assay
[9] = molecular target: Serine/threonine-protein kinase pim-2 (Homo sapiens) (UniProt Q9P1W9); assay: Inhibition of PIM2 (unknown origin) at 10 uM after 120 mins P33 radiolabeled kinase activity assay
[10] = molecular target: Casein kinase II subunit alpha (Homo sapiens) (UniProt P68400); assay: Inhibition of CK2alpha (unknown origin) at 10 uM after 120 mins P33 radiolabeled kinase activity assay
Chain of Casein kinase II subunit alpha (Homo sapiens) (P68400 whole entry, looked up): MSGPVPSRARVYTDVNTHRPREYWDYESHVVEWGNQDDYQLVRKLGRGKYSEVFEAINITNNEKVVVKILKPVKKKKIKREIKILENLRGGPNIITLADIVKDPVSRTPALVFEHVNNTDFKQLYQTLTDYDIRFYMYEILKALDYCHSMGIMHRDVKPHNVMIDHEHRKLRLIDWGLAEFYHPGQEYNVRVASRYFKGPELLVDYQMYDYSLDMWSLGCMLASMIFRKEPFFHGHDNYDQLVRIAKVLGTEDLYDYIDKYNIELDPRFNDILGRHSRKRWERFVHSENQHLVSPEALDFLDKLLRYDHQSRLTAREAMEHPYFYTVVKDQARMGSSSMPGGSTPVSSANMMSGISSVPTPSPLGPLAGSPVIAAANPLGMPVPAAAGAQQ

Chain of Mitogen-activated protein kinase 9 (Homo sapiens) (P45984 whole entry, looked up): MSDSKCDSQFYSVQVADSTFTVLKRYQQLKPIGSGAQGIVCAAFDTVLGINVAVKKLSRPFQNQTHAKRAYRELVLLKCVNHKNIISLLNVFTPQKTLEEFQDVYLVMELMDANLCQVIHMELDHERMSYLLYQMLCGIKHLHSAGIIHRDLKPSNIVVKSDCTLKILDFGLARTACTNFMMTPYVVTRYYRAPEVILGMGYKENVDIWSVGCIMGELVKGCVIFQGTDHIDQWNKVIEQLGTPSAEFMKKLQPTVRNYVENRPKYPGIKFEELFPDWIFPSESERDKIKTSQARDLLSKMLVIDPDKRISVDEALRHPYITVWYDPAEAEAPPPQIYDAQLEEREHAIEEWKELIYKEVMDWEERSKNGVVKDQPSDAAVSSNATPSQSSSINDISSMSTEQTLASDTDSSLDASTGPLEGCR
Chain of Tyrosine-protein kinase Fyn (Homo sapiens) (P06241 2-537 limits assumed): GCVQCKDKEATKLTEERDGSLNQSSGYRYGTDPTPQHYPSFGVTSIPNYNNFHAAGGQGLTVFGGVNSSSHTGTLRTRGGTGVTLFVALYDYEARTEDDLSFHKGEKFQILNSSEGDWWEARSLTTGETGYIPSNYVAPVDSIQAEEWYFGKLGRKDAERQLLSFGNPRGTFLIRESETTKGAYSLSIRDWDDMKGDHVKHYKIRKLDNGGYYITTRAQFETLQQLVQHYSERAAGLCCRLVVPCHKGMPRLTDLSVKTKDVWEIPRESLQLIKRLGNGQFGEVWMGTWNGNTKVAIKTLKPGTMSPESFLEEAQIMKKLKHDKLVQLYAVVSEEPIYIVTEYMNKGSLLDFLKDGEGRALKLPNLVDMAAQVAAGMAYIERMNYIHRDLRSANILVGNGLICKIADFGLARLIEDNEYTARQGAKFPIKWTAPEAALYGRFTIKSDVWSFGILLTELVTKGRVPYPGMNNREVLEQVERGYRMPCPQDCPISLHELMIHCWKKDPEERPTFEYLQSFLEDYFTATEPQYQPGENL
Chain of Tyrosine-protein kinase JAK1 (Homo sapiens) (P23458 whole entry): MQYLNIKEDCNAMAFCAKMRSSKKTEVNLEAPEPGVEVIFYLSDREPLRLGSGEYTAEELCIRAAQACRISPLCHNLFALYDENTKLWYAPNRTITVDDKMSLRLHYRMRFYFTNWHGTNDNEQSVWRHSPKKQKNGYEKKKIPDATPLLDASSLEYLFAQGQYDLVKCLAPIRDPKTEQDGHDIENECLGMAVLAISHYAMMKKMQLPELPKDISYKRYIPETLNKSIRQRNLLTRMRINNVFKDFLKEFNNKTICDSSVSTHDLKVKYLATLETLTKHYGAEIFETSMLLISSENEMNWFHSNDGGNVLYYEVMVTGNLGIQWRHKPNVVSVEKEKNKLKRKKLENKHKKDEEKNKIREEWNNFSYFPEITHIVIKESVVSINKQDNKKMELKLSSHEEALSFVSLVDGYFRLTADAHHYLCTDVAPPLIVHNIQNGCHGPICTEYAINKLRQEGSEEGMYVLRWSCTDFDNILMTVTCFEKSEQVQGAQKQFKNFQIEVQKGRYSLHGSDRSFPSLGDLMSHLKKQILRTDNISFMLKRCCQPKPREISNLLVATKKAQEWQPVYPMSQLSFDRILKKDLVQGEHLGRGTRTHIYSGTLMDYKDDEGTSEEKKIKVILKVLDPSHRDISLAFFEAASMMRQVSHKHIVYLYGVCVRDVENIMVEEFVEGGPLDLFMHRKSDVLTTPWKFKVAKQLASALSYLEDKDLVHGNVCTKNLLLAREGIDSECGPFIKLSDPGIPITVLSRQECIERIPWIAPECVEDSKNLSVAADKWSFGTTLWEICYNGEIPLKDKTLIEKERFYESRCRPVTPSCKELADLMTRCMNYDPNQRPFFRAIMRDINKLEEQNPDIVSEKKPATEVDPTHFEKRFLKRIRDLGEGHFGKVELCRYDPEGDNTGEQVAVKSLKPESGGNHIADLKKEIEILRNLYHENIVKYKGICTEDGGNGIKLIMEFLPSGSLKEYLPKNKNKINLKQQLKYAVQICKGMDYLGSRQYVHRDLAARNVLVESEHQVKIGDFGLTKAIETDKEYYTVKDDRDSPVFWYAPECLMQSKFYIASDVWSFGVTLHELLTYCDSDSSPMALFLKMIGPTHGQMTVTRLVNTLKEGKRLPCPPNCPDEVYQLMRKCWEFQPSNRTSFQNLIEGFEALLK
Chain of Mitogen-activated protein kinase kinase kinase 12 (Homo sapiens) (Q12852 whole entry, looked up): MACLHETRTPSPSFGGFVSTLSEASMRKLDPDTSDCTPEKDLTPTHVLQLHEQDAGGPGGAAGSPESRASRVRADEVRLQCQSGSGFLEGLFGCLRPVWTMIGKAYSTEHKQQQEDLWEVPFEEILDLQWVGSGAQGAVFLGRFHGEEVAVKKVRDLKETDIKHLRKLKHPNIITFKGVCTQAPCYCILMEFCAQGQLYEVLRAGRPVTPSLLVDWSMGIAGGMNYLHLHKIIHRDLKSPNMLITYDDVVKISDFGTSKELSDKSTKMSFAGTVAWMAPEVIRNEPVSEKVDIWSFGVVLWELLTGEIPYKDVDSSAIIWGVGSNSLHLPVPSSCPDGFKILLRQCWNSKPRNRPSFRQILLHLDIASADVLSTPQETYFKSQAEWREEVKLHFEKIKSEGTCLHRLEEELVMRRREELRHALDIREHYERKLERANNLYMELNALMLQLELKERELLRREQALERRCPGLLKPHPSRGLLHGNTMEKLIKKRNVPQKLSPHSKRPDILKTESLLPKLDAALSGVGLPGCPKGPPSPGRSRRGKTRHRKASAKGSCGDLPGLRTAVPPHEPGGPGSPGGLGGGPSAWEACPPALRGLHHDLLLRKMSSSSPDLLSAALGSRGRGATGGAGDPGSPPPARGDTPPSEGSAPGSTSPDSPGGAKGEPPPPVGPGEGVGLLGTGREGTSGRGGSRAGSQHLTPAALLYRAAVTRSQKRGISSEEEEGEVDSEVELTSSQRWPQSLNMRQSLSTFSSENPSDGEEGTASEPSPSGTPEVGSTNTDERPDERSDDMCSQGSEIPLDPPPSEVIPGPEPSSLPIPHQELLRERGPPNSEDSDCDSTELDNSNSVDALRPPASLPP
Chain of Serine/threonine-protein kinase pim-2 (Homo sapiens) (Q9P1W9 whole entry, looked up): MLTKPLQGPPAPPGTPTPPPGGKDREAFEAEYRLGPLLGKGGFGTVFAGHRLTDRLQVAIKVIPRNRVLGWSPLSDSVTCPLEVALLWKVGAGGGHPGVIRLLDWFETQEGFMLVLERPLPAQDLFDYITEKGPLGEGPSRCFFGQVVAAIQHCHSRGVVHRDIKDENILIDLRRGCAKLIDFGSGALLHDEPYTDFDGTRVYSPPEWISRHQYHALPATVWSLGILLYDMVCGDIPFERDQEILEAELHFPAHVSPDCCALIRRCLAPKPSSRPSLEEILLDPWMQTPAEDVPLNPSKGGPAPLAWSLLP

| inhibition [1] [%] | inhibition [2] [%] | inhibition [3] [%] | inhibition [4] [%] | inhibition [5] [%] | inhibition [6] [%] | inhibition [7] [%] | inhibition [8] [%] | inhibition [9] [%] | inhibition [10] [%] | Structure (SMILES) |
| --- | --- | --- | --- | --- | --- | --- | --- | --- | --- | --- |
| 7.26 | 93.8 | 53 | -2.11 | 31.6 | 97.5 | 99.8 | 13.5 | 6.09 | 19.7 | CS(=O)(=O)c1cccc(Nc2nccc(-c3sc(N4CCOCC4)nc3-c3cccc(NS(=O)(=O)c4c(F)cccc4F)c3)n2)c1 |
| 4.43 | 29.3 | 5.39 | 5.2 | 9.38 | 27.8 | 49.1 | 9.13 | 0.63 | 8.6 | COCCNC(=O)c1ccc2c(c1)nc(-c1cnc(-c3ccc(Cl)cc3)[nH]1)n2CCOC |
| 8.32 | 96 | 8.04 | -3.4 | 8.89 | 24.8 | 85.8 | 79.8 | 3.72 | 20 | CC(C)(C)c1cc(NC(=O)Nc2ccc(Oc3ccncc3)cc2)no1 |
